Measurements from patent publication US12054485B2, “Substituted imidazoquinolines” (BIONTECH SE, priority 2017, dated 2024).

Assays:
human TLR7 = target: T1, human TLR7 (Homo sapiens, UniProt Q9NYK1); assay: TLR7 reporter gene assay (HEK-Blue-hTLR7, NFkB/AP-1 inducible SEAP); type: cell-based; conditions: HEK-Blue-hTLR7; read-out: EC50 in the TLR7 reporter gene assay
T1 construct: host or cells: HEK-Blue-hTLR7
T1 sequence (Q9NYK1 27-1049): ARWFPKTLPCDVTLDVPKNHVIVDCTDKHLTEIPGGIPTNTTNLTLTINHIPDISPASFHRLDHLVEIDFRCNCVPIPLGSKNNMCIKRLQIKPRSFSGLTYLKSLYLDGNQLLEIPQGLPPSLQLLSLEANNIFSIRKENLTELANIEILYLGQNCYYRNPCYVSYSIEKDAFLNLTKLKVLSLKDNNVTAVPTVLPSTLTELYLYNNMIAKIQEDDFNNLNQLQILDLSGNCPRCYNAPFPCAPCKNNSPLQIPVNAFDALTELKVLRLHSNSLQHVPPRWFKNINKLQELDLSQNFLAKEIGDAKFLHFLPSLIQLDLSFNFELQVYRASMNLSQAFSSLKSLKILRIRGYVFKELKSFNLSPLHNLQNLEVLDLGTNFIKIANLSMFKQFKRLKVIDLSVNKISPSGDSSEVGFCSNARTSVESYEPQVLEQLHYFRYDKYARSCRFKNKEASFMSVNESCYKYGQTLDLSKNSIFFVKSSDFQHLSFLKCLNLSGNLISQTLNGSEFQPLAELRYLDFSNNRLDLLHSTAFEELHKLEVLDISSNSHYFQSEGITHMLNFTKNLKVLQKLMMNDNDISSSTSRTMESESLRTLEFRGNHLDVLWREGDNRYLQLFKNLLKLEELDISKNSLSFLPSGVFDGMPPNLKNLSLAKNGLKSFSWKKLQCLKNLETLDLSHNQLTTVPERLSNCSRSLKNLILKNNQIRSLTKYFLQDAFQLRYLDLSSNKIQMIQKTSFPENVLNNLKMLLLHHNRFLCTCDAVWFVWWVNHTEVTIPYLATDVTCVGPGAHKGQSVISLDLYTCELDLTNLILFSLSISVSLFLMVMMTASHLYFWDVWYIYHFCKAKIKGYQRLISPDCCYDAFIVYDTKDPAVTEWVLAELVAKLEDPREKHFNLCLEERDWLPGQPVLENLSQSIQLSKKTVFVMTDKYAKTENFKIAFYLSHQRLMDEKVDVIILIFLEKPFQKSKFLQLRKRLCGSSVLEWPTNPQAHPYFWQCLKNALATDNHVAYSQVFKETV
Procedure: 2) TLR Stimulation Assay:
Compounds are tested for stimulation of human TLR7 and TLR8, respectively, via reporter gene expression analyzed in a cell line stably transfected with human TLR7 and TLR8, respectively, and coexpressing an NFkB/AP-1 inducible SEAP reporter gene. Stimulation with a TLR ligand leads to NFkB/AP-1 activation and upregulation and secretion of SEAP, which can be measured in the supernatant with QuantiBlue™ detection system (InvivoGen).
Cell lines used were either HEK-Blue-hTLR7 (InvivoGen #hkb-htlr7) or HEK-Blue-hTLR8 (InvivoGen #hkb-htlr8). Cells were cultured following manufacturer's instructions.
Assay: • prepare cell suspensions of each cell line with Nv=0.11×10^6 cells/ml in medium (DMEM 4.5 g/l Glucose, 2-4 mM L-glutamine+10% FBS) without antibiotics (Nv=number of living cells) • add 180 μl of the suspensions per well of a 96 well flat bottom cell culture plates (coster, #3506) • incubate the plates overnight at 37° C. and 5% CO2 • prepare samples and controls as solutions in DMSO: R848, CL075 (TLR 7/8 agonist by InvivoGen) and Guardiquimod each to a final concentration of 10 μM, ODN2006 (InvivoGen) and ODN2216 (InvivoGen) each to a final concentration 2 μM; • compounds of the invention are applied in dilution series to final concentrations of 30, 10, 3, 1, etc. μM • add 20 μl diluted compounds and controls (see above) to the wells • incubate plates for 20-24 h at 37° C. and 5% CO2 • prepare QuantiBlue™ (InvivoGen #10H19-MM) solution, following manufacturer's instructions: solubilize the powder of one pouch in 100 ml MilliQ grade water, heat at 37° C. in a water bath for about 30 min, filter the solution with a paper filter • add 100 μl prepared QuantiBlue™ solution in each well of a 96 well plate with flat bottom • add […] cell culture supernatant from the induced cells per well • incubate plates for 1 to 1.5 h at 37° C. (until an intense blue color has developed) • read OD at 620 nm with a plate reader • calculate EC50 from data points

cynomolgus monkeys = assay: In vivo IFN-α secretion in cynomolgus monkeys (plasma IFN-α ELISA); conditions: cynomolgus monkey, single i.v. 30 min infusion, 0.1 mg/kg
Procedure: In the following studies, compounds according to the invention were examined in an in vivo cynomolgus monkey model. It is evaluated whether and at which applied dose the compounds cause secretion of IFN-α.
In particular, a defined single dose of test compound was applied intravenously to cynomolgus monkeys by a thirty minute infusion. At several time points after initiation of the intravenous compound application, blood samples (0.5 mL for approximately 0.25 mL plasma) were collected from the vena cephalica antebrachii or vena saphena into K3EDTA tubes from the animals. Blood samples were stored on crushed ice prior to centrifugation. Plasma was obtained by centrifugation at 4° C. and approximately 1800 g for 10 minutes and was aliquoted into labeled micro tubes and stored frozen at −70° C. or below. Plasma samples were thawed, diluted and used for determination of IFN-α levels using an IFN-α Elisa Kit (e.g. VeriKine™ Cynomolgus/Rhesus IFN-α ELISA Kit) according to the manufacturer's instructions.

EC50 (human TLR7): 44 nM
Structure (SMILES): CCc1nc2c(N)nc3ccccc3c2n1CCCCN(C(C)=O)C1CCOCC1 [Example 1, N-(4-(4-Amino-2-ethyl-1H-imidazo[4,5-c]quinolin-1-yl)butyl)-N-(tetrahydro-2H-pyran-4-yl)acetamide]
IFN-α secretion (plasma) (cynomolgus monkeys): up to 15,000 pg/ml
